Marks after values point to notes of the source that are not given here.

Tested on in the first series: not listed separately
The series can be described thus: CNS penetration: intravenous cassette pharmacokinetic study, brain and plasma by LC-MS/MS. The following applies: C57B16/J, mouse, in vivo, 0.4 mg/kg.
Method: To assess penetration of compounds into the mouse central nervous system, intravenous pharmacokinetic studies were undertaken in C57B16/J mice. […] Compounds were then combined into a single dosing solution and administered together via the intravenous route into 24 mice. Total compound dose administered to each mouse was 2mg/kg. Mice were culled at various times post dosing and brain and plasma collected for bioanalysis. In particular, mice were culled and plasma collected for bioanalysis at 8 time points out to 24 hours post dosing. Brains were also collected for bioanalysis at various time points to assess CNS penetration. 2 hour and 4 hour brain collection was carried out in all studies. Additional time points were collected in selected studies.
For bioanalysis, compounds were prepared in DMSO and aliquoted together to ensure a final concentration of 1mg/mL per compound in DMSO. Analytical standards were prepared from the initial 1mg/mL stock solution of compound, with a 12-point standard curve range from 0.5ng/mL to 2000ng/mL, with independent quality control tests from 1ng/mL to 1000ng/mL run to validate the standards. All standards and QC samples were matrix matched to eliminate possible suppression. Plasma samples were prepared with a 1:10 dilution in plasma. […] Dose solutions were diluted in a control matrix to a relative concentration that fell on the standard curve. Cold acetonitrile containing internal standard was added to all samples, standards, dose samples and QC samples; samples were then centrifuged for 30 minutes at 4000rpm. After centrifugation, supernatant was transferred to a new 96-well plate, diluted with an equal volume of water and mixed thoroughly before LC-MS analysis.
Supernatents were analysed by LC-MS/MS. From the analysis data a response ratio was obtained using the formula Response Ratio = Test Peak Area/Internal Standard Peak Area. From the standard curve, the test peak area was converted to concentration of test compound.
To establish CNS penetration, the ratio of the concentration of each compound in the plasma samples to the brain samples was assessed.
For the compound `CC(C)(C)c1ccccc1Oc1ncccc1NC(=O)Nc1ccc(OC(F)(F)F)cc1` [S1 (BPTU), 1-(2-(2-(tert-butyl)phenoxy)pyridin-3-yl)-3-(4-(trifluoromethoxy)phenyl)urea], the “CNS penetrant (asterisk)” value is “S1 (BPTU)*”.

Still in this series, the particulars now being: mouse, in vivo.
On to `O=C(Nc1ccc(OC(F)(F)F)cc1)Nc1cccnc1Oc1ccccc1C1(C(F)(F)F)CC1` [S4, 1-(4-(trifluoromethoxy)phenyl)-3-(2-(2-(1-(trifluoromethyl)cyclopropyl)phenoxy)pyridin-3-yl)urea], for which the “CNS penetrant (asterisk)” value was “S4*”.
The same measure, in the same setting: under `Cc1c(Oc2ncccc2NC(=O)Nc2ccc(OC(F)(F)F)cc2)cccc1N1CCCCC1` [S9] stands “S9*”.
In the case of `CC(C)(C)c1ccccc1Oc1cccc(O)c1NC(=O)Nc1ccc(OC(F)(F)F)cc1` [S11, 1-(2-(2-(tert-butyl)phenoxy)-6-hydroxyphenyl)-3-(4-(trifluoromethoxy)phenyl)urea], the “CNS penetrant (asterisk)” value is “S11*”.
Still for that read-out and setting: next, `CC(C)(C)c1ccccc1Oc1ncccc1NC(=O)Nc1ccc(C(F)(F)F)s1` [S8, 1-(2-(2-(tert-butyl)phenoxy)pyridin-3-yl)-3-(5-(trifluoromethyl)thiophen-2-yl)urea]: “S8*”.

The same series, now with this note: mouse, intravenous.
Turning to `CC1(C)CN(c2ccccc2NC(=O)Nc2ccc(OC(F)(F)F)cc2)c2c(O)ccc(-c3ccc(Cl)cc3)c21` [RS1, 1-(2-(4-(4-chlorophenyl)-7-hydroxy-3,3-dimethylindolin-1-yl)phenyl)-3-(4-(trifluoromethoxy)phenyl)urea, reference compound], the “CNS penetration (in words)” value is given as “no apparent CNS penetration”.
Same read-out and setting: next, `Cc1ccc(NC(=O)Nc2ccc(OC(F)(F)F)cc2)c(Oc2ccccc2C(C)(C)C)n1` [RS2, 1-(2-(2-(tert-butyl)phenoxy)-6-methylpyridin-3-yl)-3-(4-(trifluoromethoxy)phenyl)urea, reference compound]: “no apparent CNS penetration”.

Still in this series, the particulars now being: mouse, t = 2 hr, 0.4mg/kg intravenous.
As to `Cc1ccc(NC(=O)Nc2ccc(OC(F)(F)F)cc2)c(Oc2ccccc2C(C)(C)C)n1` [compound 3, 1-(2-(2-(tert-butyl)phenoxy)-6-methylpyridin-3-yl)-3-(4-(trifluoromethoxy)phenyl)urea, reference compound], the “CNS penetration: total brain to plasma ratio” value is “BLLQ^d”.
Same read-out and setting: next, `CC1(C)CN(c2ccccc2NC(=O)Nc2ccc(OC(F)(F)F)cc2)c2c(O)ccc(-c3ccc(Cl)cc3)c21` [compound 1, reference compound]: “BLLQ^d”.

The next series deals with T1, P2Y1 receptor (Homo sapiens, UniProt P47900).
T1 construct: expressed in transfected cells
T1 sequence (P47900 whole entry): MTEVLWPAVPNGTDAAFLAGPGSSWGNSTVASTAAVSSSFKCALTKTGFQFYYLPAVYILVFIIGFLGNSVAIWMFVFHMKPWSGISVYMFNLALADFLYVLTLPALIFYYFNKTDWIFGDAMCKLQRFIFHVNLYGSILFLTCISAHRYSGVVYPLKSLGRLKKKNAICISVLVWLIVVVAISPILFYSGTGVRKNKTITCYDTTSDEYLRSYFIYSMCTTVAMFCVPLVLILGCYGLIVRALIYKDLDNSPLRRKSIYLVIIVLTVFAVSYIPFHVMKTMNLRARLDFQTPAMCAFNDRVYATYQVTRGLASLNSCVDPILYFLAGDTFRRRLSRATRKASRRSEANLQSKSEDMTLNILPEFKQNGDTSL
The series can be described thus: Cell based HTRF assay measuring IP1 accumulation; antagonism of the P2Y1 agonist MRS2365. The following applies: 5nM MRS2365; rounded to nearest whole number; read-out: IC50. The protocol: IC50 values were determined using a cell based assay in stably transfected cells overexpressing the P2Y1 receptor. The assay system is a high throughput […] assay measuring accumulation of the intracellular messenger inositol monophosphate (IP1), generated intracellularly following activation of P2Y1.
P2Y1 overexpressing cells were maintained in T175 flasks. The day before the assay, these cells were split and 20µl cell suspension transferred to each well of white 384-well assay plates at a cell density of 0.5x10^6 cells/mL. Plates were pulse centrifuged, then incubated overnight at 37°C / 5% CO2 prior to assay.
On day of assay, medium was removed from cells and replaced with stimulation buffer. […] Positive control antagonist curves with standard compounds were included on each plate. Plates were incubated with antagonists for 1 hour prior to addition of 5nM of the agonist MRS2365, dispensed using a Bravo liquid handler. Following agonist addition, plates were incubated for 60 minutes prior to assay. Both incubations were carried out at 37°C / 5% CO2.
For the assay, IP1 accumulation was quantified using the IPOne kit according to manufacturer's instructions. In short, a standard curve was prepared for IP1 quantification, and cells lysed using kit lysis buffer. Assay reagents were added to the lysates, and incubated for 1 hour at room temperature without spinning or shaking. Plates were analysed on a BMG Pherastar plate reader, and IP1 signal generated in cells interpolated from the standard curve.
Background: Time-resolved FRET reads energy transfer from a long-lived donor to a nearby acceptor.
The term IC50 denotes the midpoint of a concentration-inhibition curve. For the compound `Cc1ccc(NC(=O)Nc2ccc(OC(F)(F)F)cc2)c(Oc2ccccc2C(C)(C)C)n1` [compound 3, 1-(2-(2-(tert-butyl)phenoxy)-6-methylpyridin-3-yl)-3-(4-(trifluoromethoxy)phenyl)urea, reference compound], the IC50 is 36 nM.
The same measure, in the same setting: next, `CC1(C)CN(c2ccccc2NC(=O)Nc2ccc(OC(F)(F)F)cc2)c2c(O)ccc(-c3ccc(Cl)cc3)c21` [compound 1, reference compound]: 33 nM.

The same series, now with this note: rounded to nearest whole number; read-out: IC50 IP1.
For `O=C(Nc1ccc(OC(F)(F)F)cc1)Nc1cccnc1Oc1ccccc1C1(C(F)(F)F)CC1` [S4, 1-(4-(trifluoromethoxy)phenyl)-3-(2-(2-(1-(trifluoromethyl)cyclopropyl)phenoxy)pyridin-3-yl)urea], the IC50 was found to be 58 nM.
The same measure, in the same setting: under `CC(C)(C)c1ccccc1Oc1nccc(O)c1NC(=O)Nc1ccccc1` [S54] stands 1770 nM; under `O=C(Nc1ccc(OC(F)(F)F)cc1)Nc1cccnc1Oc1ccccc1` [S65], 2860 nM; under `O=C(Nc1ccc(OC(F)(F)F)cc1F)Nc1cccnc1Oc1ccccc1S(F)(F)(F)(F)F` [S14], 173 nM.
Same read-out and setting: next, `Cc1c(Oc2ncccc2NC(=O)Nc2ccc(OC(F)(F)F)cc2)cccc1-c1ccccc1` [S7]: 99 nM.
Same read-out and setting: next, `CC(C)(C)c1ccccc1Oc1ncccc1NC(=O)NC1CC2(C1)CN(CC(F)(F)F)C2` [S76]: 7070 nM; `O=C(Nc1ccc(OC(F)(F)F)cc1)Nc1cccnc1Oc1cccc(OCc2ccccc2)c1` [S40]: 924 nM.
On to `Cc1c(Oc2ncccc2NC(=O)Nc2ccc(OC(F)(F)F)cc2)cccc1N1CCC2(CC1)COC2` [S36], for which the concentration for half-maximal inhibition (IC50) was determined as 732 nM.
Consider `Cc1ccccc1Oc1ncncc1NC(=O)Nc1ccc(OC(F)(F)F)cc1` [S81], for which the IC50 turned out to be 8120 nM.
As for `O=C(Nc1ccc(OC(F)(F)F)cc1)Nc1cccnc1Oc1ccccc1S(F)(F)(F)(F)F` [S10], the IC50 amounted to 124 nM.
In the case of `Cc1c(Oc2ncccc2NC(=O)Nc2ccc(OC(F)(F)F)cc2)cccc1N1CCCCC1` [S9], the IC50 came out at 122 nM.
Take `Cc1c(Oc2ncccc2NC(=O)Nc2ccc(OC(F)(F)F)cc2)cccc1-c1cccc(C#N)c1` [S27]: the IC50 is 512 nM.
Still for that read-out and setting: under `N#Cc1cccc(Oc2ncccc2NC(=O)Nc2ccc(OC(F)(F)F)cc2)c1` [S73] stands 5840 nM.
Take `CC(C)(C)c1ccccc1Oc1ncccc1NC(=O)Nc1ccc2c(c1)OC(F)(F)O2` [S6]: the IC50 turned out to be 76 nM.
On the same count and under the same terms, next, `CC(C)(O)c1ccccc1Oc1ncccc1NC(=O)Nc1ccc(OC(F)(F)F)cc1` [S77]: 7120 nM; `O=C(Nc1ccc(OC(F)(F)F)cc1)Nc1cccnc1Oc1cccc(N2CCOCC2)c1` [S83]: 8730 nM; `CC(c1ccccc1Oc1ncccc1NC(=O)Nc1ccc(OC(F)(F)F)cc1)N1CCCCC1` (centres unmarked) [S74]: 6000 nM.
On the same count and under the same terms, under `CCOC(=O)c1nnc(NC(=O)Nc2cccnc2Oc2ccccc2C(C)(C)C)s1` [S86] stands 9680 nM.
`Cc1c(Oc2ncccc2NC(=O)Nc2ccc(OC(F)(F)F)cc2)cccc1-c1cccc(CN(C)C)c1` [S85]: the IC50 was determined as 9530 nM.
Still for that read-out and setting: next, `COc1ccc(Br)c(Oc2ncccc2NC(=O)Nc2ccc(OC(F)(F)F)cc2)c1` [S78]: 7160 nM; `Cc1ccccc1Oc1ncc(C(F)(F)F)cc1NC(=O)Nc1ccc(OC(F)(F)F)cc1` [S69]: 4390 nM.
The same measure, in the same setting: next, `CC(C)(C)c1ccccc1Oc1cccc(O)c1NC(=O)Nc1ccc(OC(F)(F)F)cc1` [S11, 1-(2-(2-(tert-butyl)phenoxy)-6-hydroxyphenyl)-3-(4-(trifluoromethoxy)phenyl)urea]: 150 nM; `CC(C)(C)c1ccccc1Oc1ncccc1NC(=O)NCc1ccc(OC(F)(F)F)cc1` [S21]: 301 nM.
The same measure, in the same setting: under `C#Cc1cnc(Oc2ccccc2C)c(NC(=O)Nc2ccc(OC(F)(F)F)cc2)c1` [S68] stands 3590 nM.
As to `Cc1cccc(Oc2ncccc2NC(=O)Nc2ccc(OC(F)(F)F)cc2)c1` [S47], the IC50 was determined as 1100 nM.
As for `Cc1ccnc(Oc2ccccc2C(C)(C)C)c1NC(=O)Nc1ccc(OC(F)(F)F)cc1` [S22], the IC50 was 302 nM.
With `CC(C)(C)c1ccccc1Oc1nnccc1NC(=O)Nc1ccc(OC(F)(F)F)cc1` [S53], the IC50 worked out at 1770 nM.
As to `CC(C)(C)c1ccccc1Oc1ncncc1NC(=O)Nc1ccc(OC(F)(F)F)cc1` [S18], the IC50 was determined as 236 nM.
Still for that read-out and setting: next, `O=C(Nc1ccc(OC(F)(F)F)cc1)Nc1cccnc1Oc1cccc(O)c1` [S52]: 1410 nM; `CC(C)(C)c1ccccc1Oc1ncc(Br)cc1NC(=O)Nc1ccc(OC(F)(F)F)cc1` [S29]: 514 nM.
On the same count and under the same terms, next, `Cc1c(Oc2ncccc2NC(=O)Nc2ccc(OC(F)(F)F)cc2)cccc1N1CCCC1` [S35]: 655 nM.
On to `O=C(Nc1ccc(OC(F)(F)F)cc1)Nc1cccnc1Oc1cccc(-c2ccccc2)c1` [S39], for which the IC50 was determined as 827 nM.
Still for that read-out and setting: next, `CC(C)(C)c1ccccc1Oc1ncc(C#N)cc1NC(=O)Nc1ccc(OC(F)(F)F)cc1` [S19]: 264 nM; `O=C(Nc1ccc(OC(F)(F)F)cc1)Nc1cccnc1Oc1cccc(N2CCCCC2)c1` [S31]: 607 nM.
As to `Cc1ccc(C)c(Oc2ncccc2NC(=O)Nc2ccc(OC(F)(F)F)cc2)c1` [S55], the IC50 was determined as 1970 nM.
Regarding `COc1ccc([C@H](C)NC(=O)Nc2cccnc2Oc2ccccc2C(C)(C)C)cc1` [S62], the IC50 stood at 2470 nM.
Same read-out and setting: under `Cc1c(Oc2ncccc2NC(=O)Nc2ccc(OC(F)(F)F)cc2)cccc1-c1ccc2c(c1)OCCN2` [S49] stands 1240 nM; under `CC(C)(C)c1ccccc1Oc1ncccc1NC(=O)Nc1ccc(C(F)(F)F)s1` [S8, 1-(2-(2-(tert-butyl)phenoxy)pyridin-3-yl)-3-(5-(trifluoromethyl)thiophen-2-yl)urea], 121 nM.
Same read-out and setting: next, `Cn1cc(-c2cnc(Oc3ccccc3C(C)(C)C)c(NC(=O)Nc3ccc(OC(F)(F)F)cc3)c2)cn1` [S48]: 1110 nM; `Cn1cc(-c2cccc(Oc3ncccc3NC(=O)Nc3ccc(OC(F)(F)F)cc3)c2)cn1` [S82]: 8180 nM.
On the same count and under the same terms, next, `Cc1ccccc1Oc1ncc(Br)cc1NC(=O)Nc1ccc(OC(F)(F)F)cc1` [S72]: 4940 nM; `Cc1ccccc1COc1ncccc1NC(=O)Nc1ccc(OC(F)(F)F)cc1` [S70]: 4590 nM; `CC(C)(C)c1ccccc1Oc1ncc(-c2ccccc2)cc1NC(=O)Nc1ccc(OC(F)(F)F)cc1` [S79]: 7580 nM.
Consider `CC(C)(C)c1ccccc1Oc1ncc(-c2ccc3c(c2)OCCN3)cc1NC(=O)Nc1ccc(OC(F)(F)F)cc1` [S26], for which the IC50 was found to be 493 nM.
Same read-out and setting: under `O=C(Nc1ccc(OC(F)(F)F)cc1)Nc1cccnc1Oc1cccc(Br)c1` [S51] stands 1320 nM.
